Consider one compound from paper PMC5827777, “Synthesis and biological evaluation of RGD and isoDGR peptidomimetic-α-amanitin conjugates for tumor-targeting” (Beilstein Journal of Organic Chemistry, 2018).

Read-outs that look alike come from different tables or passages of the source.

Test [1] has as its system A549 cells (human lung carcinoma, αVβ3−). Nature of the test: cells. The class given is cell-based. The following applies: 96 hours treatment; triplicate; read-out: IC50 A549 (αVβ3−), inhibition of cell viability. Here is the method: (§1) The cell lines were treated with different concentrations of the free drug α-amanitin and conjugates 7–11 for 96 hours. […]
(§2) described recently.[S1] The SNP profiles matched known profiles or were unique. The purity of the cell lines was validated using the Multiplex cell Contamination Test by Multiplexion (Heidelberg, Germany) as described recently.[S2] No mycoplasma, SMRV or interspecies contamination was detected. U87-MG, MDA-MB 468 and A549 cells were cultivated continuously for not more than 3 months in MEM Eagle´s, DMEM or Ham´s F12 medium, respectively, supplemented with 10% heat inactivated fetus calf serum, L-glutamine and antibiotics. Cell lines were maintained at 37 °C and 5% CO2 in a high humidity atmosphere.
(§3) Cell therapy and viability assay
Cell viability assays were performed in U87-MG, A549 and MDA-MB 468 cell lines according to the following procedure: 2 × 10^3 cells/well were plated in 96-well black clear bottom plates (Perkin Elmer) and incubated overnight. 1:5 serial dilutions of compounds 7–11 were prepared in cell culture media. The compounds were added to the cell culture and incubated for additional 96 h. Starting concentration of compounds 7–11 in the wells was 1 × 10−5 M and cell viability was determined with the CellTiterGlo 2.0 assay (Promega) in accordance to manufacturer’s instructions. The cell viability was calculated in relation to the non-treated controls for each cell line. All samples were measured in triplicate. Data analysis was carried out using software GraphPad Prism (GraphPad Software Inc., La Jolla, CA, USA). […]

Test [2] concerns U87 (αVβ3+, αVβ5+, αVβ6−, α5β1+). The note with it: read-out: IC50 U87, inhibition of cell viability, 96 hours.
From the text: (§4) However, it should be noted that these cell lines overexpress other integrins (α5β1 in U87, αVβ6 in MDA-MB-468, and αVβ5 in both). […]
(§5) described recently.[S1] […] The purity of […]
(§6) the cell lines was validated using the Multiplex cell Contamination Test by Multiplexion (Heidelberg, Germany) as described recently.[S2]
(§7) U87-MG, MDA-MB 468 and A549 cells were cultivated continuously for not more than 3 months in MEM Eagle´s, DMEM or Ham´s F12 medium, respectively, supplemented with 10% heat inactivated fetus calf serum, L-glutamine and antibiotics. Cell lines were maintained at 37 °C and 5% CO2 in a high humidity atmosphere.
as §3
(§8) Cell viability assays were performed in U87-MG, A549 and MDA-MB 468 cell lines according to the following procedure: 2 × 10^3 cells/well were plated in 96-well black clear bottom plates (Perkin Elmer) and incubated overnight. […]
(§9) in cell culture media. The compounds were added to the cell culture and incubated for additional […]
(§10) was determined with the CellTiterGlo 2.0 assay (Promega) in accordance to manufacturer’s instructions. The cell viability was calculated in relation to the non-treated controls for each cell line. All samples were measured in triplicate.
(§11) All samples were measured in triplicate.

Test [3] has as its system MDA-MB-468 (αVβ3−, αVβ5+, αVβ6+, α5β1−). The following applies: read-out: IC50 MDA-MB-468, inhibition of cell viability, 96 hours.
From the text: as §4, §5, §6, §7, §3, §8, §9, §10, §11

Test [4] has as its system U87 cells (human glioblastoma, αVβ3+). Nature of the test: cells. The class given is cell-based. The protocol: as §1, §2, §3
Cell viability assays were performed in U87-MG, A549 and MDA-MB 468 cell lines according to the following procedure: 2 × 10^3 cells/well were plated in 96-well black clear bottom plates (Perkin Elmer) and incubated overnight. 1:5 serial dilutions of compounds 7–11 were prepared in cell culture media. The compounds were added to the cell culture and incubated for additional 96 h. Starting concentration of compounds 7–11 in the wells was 1 × 10−5 M and cell viability was determined with the CellTiterGlo 2.0 assay (Promega) in accordance to manufacturer’s instructions. The cell viability was calculated in relation to the non-treated controls for each cell line. All samples were measured in triplicate. Data analysis was carried out using software GraphPad Prism (GraphPad Software Inc., La Jolla, CA, USA).
Competition experiment of compounds 10 and 11
The competition experiment s were performed in U87-MG and MDA-MB 468 cell lines according to the following procedure: 2 × 10^3 cells/well were plated in 96-well black clear bottom plates (Perkin Elmer) and incubated overnight. A solution containing 1 × 10−4 M of the conjugates 10 or 11 and 5 × 10−3 M of cilengitide (50-fold excess of ligand in comparison to the conjugate) was prepared in the growth medium and 1:5 serial dilutions were prepared in cell culture media. The compounds were added to cell culture and incubated for 96 h. The starting concentration of the compounds in the wells was 0.01 mM whereas that of cilengitide was 0.5 mM. The cell viability was determined with the CellTiterGlo 2.0 assay (Promega) in accordance to manufacturer’s instructions and the viability was calculated in relation to the non-treated controls for each cell line. All samples were measured in triplicate. Data analysis was carried out using software GraphPad Prism (GraphPad Software Inc., La Jolla, CA, USA).
[S1] F. Castro, W. G. Dirks, S. Fähnrich, A. Hotz-Wagenblatt, M. Pawlita, M. Schmitt, Int. J. Cancer […]
[S2] M. Schmitt, M. Pawlita, Nucleic Acids Res. 2009, 37, e119.

Where [5] appears, read: + 50-fold excess of cilengitide.

As to `CC[C@H](C)[C@@H]1NC(=O)CNC(=O)[C@@H]2Cc3c([nH]c4cc(OCc5ccc(NC(=O)[C@H](C)NC(=O)[C@@H](NC(=O)CCCC(=O)NCc6ccc(CN7C(=O)[C@H]8CC(=O)N[C@H](C(=O)O)CC(=O)NCC(=O)N[C@@H](CCCNC(=N)N)C(=O)NC[C@H]7C(=O)N8)cc6)C(C)C)cc5)ccc34)[S@+]([O-])C[C@H](NC(=O)CNC1=O)C(=O)N[C@@H](CC(N)=O)C(=O)N1C[C@H](O)C[C@H]1C(=O)N[C@@H]([C@@H](C)[C@@H](O)CO)C(=O)N2` [Compound 10, cyclo[DKP-isoDGR]-Val-Ala-α-amanitin], the IC50 was 217 ± 98.3 nM in test [1]; 106 ± 11.6 nM in test [2] (setting [5]); 107 ± 26.8 nM in test [2] (without cilengitide); 259 ± 55.2 nM in test [3] (setting [5]); 47 ± 21.1 nM in test [3] (without cilengitide); 143 ± 33.8 nM in test [4] (96 hours treatment, triplicate, read-out: IC50 U87 (αVβ3+), inhibition of cell viability). For the same compound, the “more potent than α-amanitin” value in test [4] (in U87, A549 and MDA-MB-468 cell lines, Table 3 entry 1 vs entry 5) is listed as 2.4–3.1 times.

For orientation: IC50 means the point on the concentration scale where inhibition reaches its midpoint.
